Data set [1] is described as follows: Microsomal incubation with CBZ and PHE, rat liver microsomes. It is filed as in vitro ADME. The following applies: rat adult liver microsomes; data not shown. As to the method: (§1) Moreover, positive and negative controls were included: pooled human liver microsomes (Gibco™, HMMCPL–PL050B, Thermo Fisher Scientific) and Insect Cell Control Supersomes™ (lot number: PL050 C-B, 456201, Corning Incorporated, Corning, NY, USA), respectively. Based on Oziolor et al., microsomal reactions were initiated after adding the substrate solution at a concentration of 100 µM (see Supplementary Table S1) in a mixture of 100 mM K3PO4 buffer (Corning® Gentest™, NY, USA) of pH 7.4, 5% and 1% of NADPH regenerating system reagents A and B, respectively (Corning, Woburn, MA, USA) and 200 µg/mL of microsomal protein, for a total volume of 500 µL. The reactions were performed at 28.5 ± 0.3 °C until the time point of interest. […]
(§2) For the quantification of the metabolites E-CBZ and HPPH, the samples processed were the microsomal incubation reactions (see Section 4.3.2), the zebrafish culture and stock medium (4.2.1) and the zebrafish embryos/larvae extracts (see Section 4.2.3). […] To quantify the concentrations of E-CBZ and HPPH in these samples, standard curves (in duplicate) of 10 concentrations for E-CBZ (0.5–400 ng/mL; see Supplementary Table S1) and HPPH (2–1600 ng/mL; see Supplementary Table S1) were prepared, as were quality controls. […]
(Liver microsomes are a subcellular fraction often used to study metabolism.)

The next data set concerns zebrafish embryos/larvae. The data set can be described thus: Quantification of parent compounds and metabolites in whole zebrafish embryos/larvae homogenate extracts. The following applies: for Uptake by embryos and larvae (quantified in homogenate extracts): CBZ, PHE 31.25, 85, 250 µM, E-CBZ, HPPH 250 µM. As to the method: In three biological replicates (n = 3; 20 embryos/replicate) and at the two desired developmental stages (24 and 120 hpf), embryos/larvae of each test and control group were pooled and then rinsed three times with cold EMS (4 °C) on a mesh (Cell strainer […] Nylon, Steril Falcon®, Durham, NC, USA). Embryos collected at 24 hpf were not dechorionated, as the focus of this study was on the potential formation of the mammalian active metabolites. Moreover, it was argued that the chorion was more permeable than previously believed and that dechorionation could increase background malformations during gross morphology investigation. Embryos/larvae were then transferred and kept for five min in cryotubes (Cryo.S™, Greiner Bio-One, Frickenhausen, Germany) filled with 500 µL of cold embryo medium (4 °C), before being snap-frozen in liquid nitrogen and kept, for later use, at −80 °C (Figure 9).
The extraction preparation was based on Brox et al. for two developmental stages, 24 and 120 hpf, and performed in triplicate for each test group (n = 3, 20 embryos/replicate) (Figure 9). On the day of the extraction procedure, frozen samples (see Section 4.2.1) were thawed on ice and EMS was removed. A volume of 500 µL of acetonitrile (ACN) (purity ≥99.9%, Merck, Darmstadt, Germany) containing the internal standard lamotrigine, LAMO, (≥98% purity, CAS number: 84057-84-1, Sigma-Aldrich, Merck, Darmstadt, Germany) was then added to each tube to reach a final concentration of 0.39 µM, after dilution in HPLC-grade water. Samples were vortexed (VM3, CAT, Germany) for 5 min at a 2000 rotation/min speed, before being placed on ice and ultrasonicated with an Ultrasonic Processor VCX 130 (Sonics, Newtown, CT, USA) fifteen times for 30 s at an 80% amplitude with pause intervals of 30 s. Supernatants of the samples were then centrifuged (Centrifuge 5424 R, Eppendorf, Hamburg, Germany) twice at 4 °C for 15 min at 15,000× g, snap-frozen and kept for later use at −80 °C, whereas the pellets were discarded.
First, both sample types were processed to reach a final percentage of 30% ACN and a concentration of 0.39 µM of the IS, LAMO. […] Calibration curves and quality controls were prepared in their corresponding reaction mixtures to minimize matrix or extraction process effects. The analytical investigations were performed on an Acquity Ultra Performance Liquid Chromatography (UPLC) with sample manager, binary solvent manager, diode array detector and a triple-quadrupole detector (ACQUITY UPLC-triple quadrupole detector, Waters, Milford, CT, USA) equipped with the Masslynx software (version 4.1). […] Separation was accomplished in 6 min, using a flow rate of 0.5 mL/min. The solvent gradient program was set as follows: 85% A/15% B (0–0.5 min); 85–0% A/15–100% B (0.5–3.3 min); 0% A/100% B (3.3–4.4 min); 0–85% A/100–15% B (4.4–4.5 min); 85% A/15% B (4.5–6 min). The column was set at 40 °C and the injection volume was 10 μL. For the mass spectrometric conditions, the following parameters were used in positive ionization mode: capillarity voltage 3.5 kV, extractor voltage 3 V, cone voltage 35 V, Rf lens 0.1 V. The source temperature was set at 120 °C and the desolation temperature at 450 °C. The desolvation gas flow was fixed at 1000 L/h and cone gas flow at 50 L/h. […] The limit of quantification, linearity, matrix effects and specificity of the method developed for each compound were validated based on the European Medicines Agency (EMA) guidelines for bioanalytical method validation and the study from Kislyuk et al..
For the quantification of the metabolites E-CBZ and HPPH, the samples processed were the microsomal incubation reactions (see Section 4.3.2), the zebrafish culture and stock medium (4.2.1) and the zebrafish embryos/larvae extracts (see Section 4.2.3). Samples from the different experiments were also prepared, as for the parent compounds, to reach a final percentage of 30% ACN and a concentration of 0.39 µM of the IS, LAMO.

Details of data set [2]: method as in PMID 20832863. The conditions noted are these: after 70.5 h of exposure (time point 72 hpf); cited from earlier work.
The nature of data set [3]: Microsomal incubation with CBZ and PHE, human liver microsomes. It counts as in vitro ADME. The following applies: human adult liver microsomes; data not shown. As to the method:
as §1, §2

A short description of data set [4]: Microsomal incubation with CBZ and PHE, rabbit liver microsomes. The following applies: rabbit adult liver microsomes; data not shown. It counts as in vitro ADME. As to the method: as §1, §2

Regarding `NC(=O)N1c2ccccc2C=Cc2ccccc21` [CBZ, carbamazepine], the figures for the “Decrease of parent compound after 240 min (pilot investigation)” value in data set [1], in data set [3] and in data set [4] were “no changes”, “no changes” and “slight decrease”, respectively. Also, the “E-CBZ in embryo/larva extracts after exposure to CBZ” value in the data set with zebrafish embryos/larvae (31.25 µM CBZ, 24 and 120 hpf) is “could not be detected”. Moreover, the “Internal concentration, fold lower at 120 hpf than at 24 hpf” value in the data set with zebrafish embryos/larvae (85 µM) was found to be 3.4 fold. Moreover, the “Uptake by embryos and larvae (quantified in homogenate extracts)” value in the data set with zebrafish embryos/larvae (24 and 120 hpf) is “taken up”. The “Average quantified concentration higher than the nominal concentration” value in data set [2] is given as 22.3%.
For `O=C1NC(=O)C(c2ccccc2)(c2ccccc2)N1` [PHE, phenytoin], the “Decrease of parent compound after 240 min (pilot investigation)” value was “very slight decrease” in data set [1], “No decrease” in data set [3] and “very slight decrease” in data set [4]. Moreover, the “Uptake by embryos and larvae (quantified in homogenate extracts)” value in the data set with zebrafish embryos/larvae (24 and 120 hpf) is recorded as “taken up”. The “HPPH in embryo/larva extracts after exposure to PHE” value with zebrafish embryos/larvae (24 hpf and 120 hpf, any samples) was “could not detect”. The “Internal concentration, times higher at 24 hpf than at 120 hpf” value in the data set on zebrafish embryos/larvae (all concentrations) was approximately 5 times.

The values are drawn from publication PMC8657848, “Developmental Toxicity and Biotransformation of Two Anti-Epileptics in Zebrafish Embryos and Early Larvae” (International Journal of Molecular Sciences, 2021).
